Experimental data: patent US9212138B2, “Use of derivatives of indoles for the treatment of cancer” (CENTRE NATIONAL DE LA RECHERCHE SCIENTIFIQUE, priority 2009, dated 2015)

target: T1, MKLP-2 (RabK6) (Homo sapiens, UniProt O95235, S2A); assay: biochemical; conditions: not given
T1 construct: Expression clones for MKLP-21-519 (coding for residues 1 to 519) were obtained as follows; His-tag; made in house; host or cells: E. coli BL21(DE3)
T1 sequence (O95235 1-519 S2A limits assumed): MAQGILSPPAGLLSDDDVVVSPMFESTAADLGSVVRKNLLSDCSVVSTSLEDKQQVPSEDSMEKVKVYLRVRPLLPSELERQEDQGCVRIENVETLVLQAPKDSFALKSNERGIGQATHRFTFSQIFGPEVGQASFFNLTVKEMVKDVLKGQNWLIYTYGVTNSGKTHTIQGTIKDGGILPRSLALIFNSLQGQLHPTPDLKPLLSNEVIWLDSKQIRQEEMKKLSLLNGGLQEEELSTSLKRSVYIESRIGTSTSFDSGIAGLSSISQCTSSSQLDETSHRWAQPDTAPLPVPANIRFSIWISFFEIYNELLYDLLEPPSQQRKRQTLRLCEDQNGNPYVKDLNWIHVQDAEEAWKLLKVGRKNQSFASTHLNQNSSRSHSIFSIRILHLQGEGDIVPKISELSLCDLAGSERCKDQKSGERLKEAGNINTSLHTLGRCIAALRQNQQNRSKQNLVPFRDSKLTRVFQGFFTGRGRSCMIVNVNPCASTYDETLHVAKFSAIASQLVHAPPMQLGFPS
Experimental: All experiments were performed at room temperature using a 96-well Sunrise photometer (Tecan, Maennedorf, Switzerland) at a final volume of 100 μl per well.
Steady-state ATPase rates were measured using the pyruvate kinase/lactate dehydrogenase-linked assay in buffer A25A (25 mM potassium ACES, pH 6.9, 2 mM MgAc2, 2 mM Na-EGTA, 0.1 mM Na-EDTA, 1 mM β-mercaptoethanol) supplemented with 1 mM MgATP; 2 mM PEP; 0.25 mM NADH; 3-10 μg/ml pyruvate kinase; 3 μg/ml lactate dehydrogenase and 8 μM taxol.
The data were analyzed using Kaleidagraph 3.0 (Synergy Software, Reading, Pa.) and Microsoft Excel to obtain the kinetic variables.
When necessary, the inhibitor concentrations were adapted depending on the initial IC50 value. Experiments were performed in triplicate and averaged data points are shown with error bars±SD.

Compared with COc1ccc2[nH]cc(/C(C#N)=C/c3cnccc3C)c2c1 [Example 31, (Z)-2-(5-methoxy-1H-indol-3-yl)-3-(4-methyl-pyridin-3-yl)-acrylonitrile], COc1ccc2[nH]cc(/C(C#N)=C/c3cnccc3Cl)c2c1 [Example 47, (Z)-3-(4-chloro-pyridin-3-yl)-2-(5-methoxy-1H-indol-3-yl)-acrylonitrile] is higher in IC50: less than 5 µM for the first, 5 to 10 µM for the second.

Compared with C#C/C(=C\c1cccnc1)c1c[nH]c2ccc(OC)cc12 [Example 58, (E)-5-methoxy-3-(1-(pyridin-3-yl)but-1-en-3-yn-2-yl)-1H-indole], COc1ccc2[nH]cc(C(C)=Cc3cccnc3)c2c1 (racemic) [Example 59, 5-methoxy-3-(1-(pyridin-3-yl)prop-1-en-2-yl)-1H-indole] is lower in IC50: 5 to 10 µM for the first, less than 5 µM for the second. The second is the more potent here.

First: COc1ccc2[nH]cc(/C(C#N)=C/c3cnn(C)c3)c2c1 [Example 51]
Second: COc1ccc2[nH]cc(/C(C#N)=C/c3ccc(C)nc3)c2c1 [Example 53, (Z)-2-(5-methoxy-1H-indol-3-yl)-3-(6-methylpyridin-3-yl)-acrylonitrile]
The IC50 of the first is higher: greater than 50 µM for the first, less than 5 µM for the second. The second is the more potent here.

N#C/C(=C\c1cccnc1)c1c[nH]c2ccc(O)cc12 [Example 29, (Z)-2-(5-hydroxy-1H-indol-3-yl)-3-pyridin-3-yl-acrylonitrile] and N#C/C(=C\c1cccnc1)c1c[nH]c2ccc(F)cc12 [Example 25, (Z)-2-(5-fluoro-1H-indol-3-yl)-3-pyridin-3-yl-acrylonitrile] cannot be ordered by IC50: less than 5 µM for the first, less than 5 µM for the second.

First: COc1ccc2[nH]cc(/C(C#N)=C/c3ccc(OC)nc3)c2c1 [Example 52, (Z)-3-(6-methoxy-pyridin-3-yl)-2-(5-methoxy-1H-indol-3-yl)-acrylonitrile]
Second: COc1ccc2[nH]cc(/C(C#N)=C/c3ccc(F)nc3)c2c1 [Example 28, (Z)-3-(6-fluoropyridin-3-yl)-2-(5-methoxy-1H-indol-3-yl)-acrylonitrile]
The IC50 of the first is higher: 10 to 20 µM for the first, less than 5 µM for the second.

N#C/C(=C\c1cccc(C#N)c1)c1c[nH]c2ccc(O)cc12 [Example 55, (Z)-3-[2-cyano-2-(5-hydroxy-1H-indol-3-yl)-vinyl]-benzonitrile] and COc1ccc2[nH]cc(/C(C#N)=C/c3cccc(C#N)c3)c2c1 [Example 30, (Z)-3-[2-cyano-2-(5-methoxy-1H-indol-3-yl)-vinyl]-benzonitrile] cannot be ordered by IC50: less than 5 µM for the first, less than 5 µM for the second.

Compared with N#C/C(=N\c1cccnc1)c1c[nH]c2ccccc12 [Example 61, (Z)-(1H-indol-3-yl)-(pyridin-3-ylimino)-acetonitrile], NC(=O)/C(=C\c1cccnc1)c1c[nH]c2ccccc12 [Example 56, (Z)-2-(1H-indol-3-yl)-3-pyridin-3-yl-acrylamide] is higher in IC50: less than 5 µM for the first, greater than 50 µM for the second.

Compared with COc1ccc2[nH]cc(/C(C#N)=C/c3ccc[n+](C)c3)c2c1 [Example 33, (Z)-3-[2-cyano-2-(5-methoxy-1H-indol-3-yl)-vinyl]-1-methylpyridinium iodide], COc1ccc2[nH]cc(/C(C#N)=C/c3cccc(N)c3)c2c1 [Example 45, (Z)-3-(3-amino-phenyl)-2-(5-methoxy-1H-indol-3-yl)-acrylonitrile] is higher in IC50: 10 to 20 µM for the first, greater than 50 µM for the second. The first is the more potent here.

Compared with COc1cc(-c2ccc3[nH]cc(/C(C#N)=C/c4cccnc4)c3c2)cc(OC)c1OC [Example 38, (Z)-3-(pyridin-3-yl)-2-(5-(3,4,5-trimethoxyphenyl)-1H-indol-3-yl)-acrylonitrile], N#C/C(=C\c1cccnc1)c1c[nH]c2ccc(-c3ccc(F)cc3)cc12 [Example 39, (Z)-2-(5-(4-fluorophenyl)-1H-indol-3-yl)-3-(pyridin-3-yl)-acrylonitrile] is higher in IC50: 5 to 10 µM for the first, 10 to 20 µM for the second.

Compared with COc1ccc2[nH]cc(/C(C#N)=C/c3cccc([N+](=O)[O-])c3)c2c1 [Example 43, (Z)-2-(5-methoxy-1H-indol-3-yl)-3-(3-nitro-phenyl)-acrylonitrile], COc1ccc2[nH]cc(/C(C#N)=C/c3cccc(C(N)=O)c3)c2c1 [Example 32, (Z)-3-[2-cyano-2-(5-methoxy-1H-indol-3-yl)-vinyl]-benzamide] is lower in IC50: greater than 50 µM for the first, 10 to 20 µM for the second. The second is the more potent here.

First: COc1cccc2[nH]cc(/C(C#N)=C/c3cccnc3)c12 [Example 27, (Z)-2-(4-methoxy-1H-indol-3-yl)-3-pyridin-3-yl-acrylonitrile]
Second: COC(=O)Nc1ccc2[nH]cc(/C(C#N)=C/c3cccnc3)c2c1 [Example 41, (Z)-methyl 3-(1-cyano-2-(pyridin-3-yl)vinyl)-1H-indol-5-ylcarbamate]
The IC50 of the first is higher: 10 to 20 µM for the first, less than 5 µM for the second.

Compared with COc1cncc(/C=C(\C#N)c2c[nH]c3ccc(OC)cc23)c1 [Example 46, (Z)-2-(5-methoxy-1H-indol-3-yl)-3-(5-methoxy-pyridin-3-yl)-acrylonitrile], COc1ccc2[nH]cc(/C(C#N)=C/c3ccc(Cl)nc3)c2c1 [Example 49, (Z)-3-(6-chloropyridin-3-yl)-2-(5-methoxy-1H-indol-3-yl)-acrylonitrile] is lower in IC50: 10 to 20 µM for the first, 5 to 10 µM for the second. The second is the more potent here.

First: N#C/C(=C\c1cccc(N)c1)c1c[nH]c2ccccc12 [Example 44, (Z)-3-(3-amino-phenyl)-2-(1H-indol-3-yl)-acrylonitrile]
Second: COc1ccc2[nH]cc(/C(C#N)=C/c3ccc(C#N)nc3)c2c1 [Example 54, (Z)-5-[2-cyano-2-(5-methoxy-1H-indol-3-yl)-vinyl]-picolinonitrile]
The IC50 of the first is higher: greater than 50 µM for the first, 5 to 10 µM for the second.

COc1ccc2[nH]cc(/C(C#N)=C/c3cccnc3F)c2c1 [Example 48, (Z)-3-(2-fluoropyridin-3-yl)-2-(5-methoxy-1H-indol-3-yl)-acrylonitrile] and COc1ccc2[nH]cc(/C(C#N)=C(\C)c3cccnc3)c2c1 [Example 60, (Z)-2-(5-methoxy-1H-indol-3-yl)-3-(pyridin-3-yl)-but-2-enenitrile] cannot be ordered by IC50: less than 5 µM for the first, less than 5 µM for the second.

same assay, conditions: basal ATPase activity, absence of MTs; read-out: RabK6 basal IC50 X

COc1ccc2[nH]cc(/C(C#N)=C/c3cccnc3)c2c1 [Example 4, (Z)-2-(5-methoxy-1H-indol-3-yl)-3-pyridin-3-yl-acrylonitrile] and CCOc1ccc2[nH]cc(/C(C#N)=C/c3cccnc3)c2c1 [Example 22, (Z)-2-(5-ethoxy-1H-indol-3-yl)-3-pyridin-3-yl-acrylonitrile] cannot be ordered by IC50: less than 5 µM for the first, less than 5 µM for the second.

First: COc1ccc2[nH]cc(/C(C#N)=C/c3ccccn3)c2c1 [Example 6, (Z)-2-(5-methoxy-1H-indol-3-yl)-3-pyridin-2-yl-acrylonitrile]
Second: N#C/C(=C\c1ccccn1)c1c[nH]c2ccccc12 [Example 3, (Z)-2-(1H-indol-3-yl)-3-pyridin-2-yl-acrylonitrile]
The IC50 of the first is lower: 10 to 20 µM for the first, greater than 50 µM for the second. The first is the more potent here.

Compared with N#C/C(=C\c1cncnc1)c1c[nH]c2ccccc12 [Example 15, (Z)-2-(1H-indol-3-yl)-3-pyrimidin-5-yl-acrylonitrile], N#C/C(=C\c1ccccc1)c1c[nH]c2ccccc12 [Example 9, (Z)-2-(1H-indol-3-yl)-3-phenyl-acrylonitrile] is higher in IC50: 10 to 20 µM for the first, 20 to 50 µM for the second.

Compared with N#C/C(=C\c1cccnc1)c1c[nH]c2ccc(OCc3ccccc3)cc12 [Example 5, (Z)-2-(5-benzyloxy-1H-indol-3-yl)-3-pyridin-3-yl-acrylonitrile], CC(C)Oc1ccc2[nH]cc(/C(C#N)=C/c3cccnc3)c2c1 [Example 23, (Z)-2-(5-isopropoxy-1H-indol-3-yl)-3-pyridin-3-yl-acrylonitrile] is lower in IC50: greater than 50 µM for the first, less than 5 µM for the second.

First: COc1cc(/C=C(\C#N)c2c[nH]c3ccc(OC)cc23)cc(OC)c1 [Example 14, (Z)-3-(3,5-dimethoxy-phenyl)-2-(5-methoxy-1H-indol-3-yl)-acrylonitrile]
Second: COc1ccc2[nH]cc(/C(C#N)=C/c3cc(OC)c(O)c(OC)c3)c2c1 [Example 7, (Z)-3-(4-hydroxy-3,5-dimethoxy-phenyl)-2-(5-methoxy-1H-indol-3-yl)-acrylonitrile]
The IC50 of the first is lower: 5 to 10 µM for the first, 20 to 50 µM for the second.

First: CC(=O)Oc1ccc2[nH]cc(/C(C#N)=C/c3cccnc3)c2c1 [Example 20, 3-(1-cyano-2-(pyridin-3-yl)vinyl)-1H-indol-5-yl-acetate]
Second: COCC(=O)Oc1ccc2[nH]cc(/C(C#N)=C/c3cccnc3)c2c1 [Example 21, 3-(1-cyano-2-(pyridin-3-yl)vinyl)-1H-indol-5-yl-methoxyacetate]
The IC50 of the first is lower: less than 5 µM for the first, 5 to 10 µM for the second. The first is the more potent here.

Compared with N#C/C(=C\c1cccnc1)c1c[nH]c2ccc(Cl)cc12 [Example 24, (Z)-2-(5-chloro-1H-indol-3-yl)-3-pyridin-3-yl-acrylonitrile], N#C/C(=C\c1ccc2c(c1)OCO2)c1c[nH]c2ccccc12 [Example 11, (Z)-3-benzo[1,3]dioxol-5-yl-2-(1H-indol-3-yl)-acrylonitrile] is higher in IC50: less than 5 µM for the first, 10 to 20 µM for the second. The first is the more potent here.

COc1ccc2[nH]cc(C(C#N)Cc3cccnc3)c2c1 (stereo not shown) [Example 18, 2-(5-methoxy-1H-indol-3-yl)-3-pyridin-3-yl-propionitrile] was tested, and the IC50 was 20 to 50 µM.
